Assay results from ChEMBL document CHEMBL4622905, “Synthesis and antifungal activity of new hybrids pyrimido[4,5-d]pyridazinone-N-acylhydrazones” (Bioorg Med Chem Lett, 2020).
Converted amounts (≈) assume the structure as drawn. The source made the active and inactive calls. The rule behind the calls is not given here.

How the values were obtained:
[1] = tested on: Paracoccidioides brasiliensis; assay: Antifungal activity against Paracoccidioides brasiliensis Pb18 in presence of 0.01 ug/ml amphotericin B; format: functional
Vero = assay: Cytotoxicity against monkey Vero cells at 512 ug/ml; format: cell-based; conditions: chlorocebus sabaeus
Candida albicans = assay: Antifungal activity against Candida albicans; format: functional
[2] = tested on: Paracoccidioides brasiliensis; assay: Antifungal activity against Paracoccidioides brasiliensis Pb18; format: functional
HeLa = assay: Cytotoxicity against human HeLa cells at 512 ug/ml; format: cell-based
Candida tropicalis = assay: Antifungal activity against Candida tropicalis; format: functional
[3] = tested on: Paracoccidioides brasiliensis; assay: Antifungal activity against Paracoccidioides brasiliensis Pb18 in presence of amphotericin B; format: functional
[4] = tested on: Paracoccidioides brasiliensis; assay: Synergistic antifungal activity against Paracoccidioides brasiliensis Pb18 assessed as fractional inhibitory concentration in presence of amphotericin B; format: functional
[5] = Selectivity index, ratio for cytotoxicity for monkey Vero cells to MIC for Paracoccidioides brasiliensis Pb18; format: toxicity, cell-based
[6] = tested on: Paracoccidioides brasiliensis; assay: Fungicidal activity against Paracoccidioides brasiliensis Pb18; format: functional
[7] = Selectivity index, ratio for cytotoxicity for human HeLa cells to MIC for Paracoccidioides brasiliensis Pb18; format: toxicity, cell-based
[8] = tested on: Paracoccidioides brasiliensis; assay: Antifungal activity against Paracoccidioides brasiliensis Pb18 in presence of 0.06 ug/ml amphotericin B; format: functional
Candida = assay: Antifungal activity against Candida; format: functional, organism-based
Nakaseomyces glabratus = assay: Antifungal activity against Candida glabrata; format: functional
[9] = tested on: Paracoccidioides brasiliensis; assay: Antifungal activity against Paracoccidioides brasiliensis Pb18 in presence of 0.25 ug/ml amphotericin B; format: functional
[10] = tested on: Paracoccidioides brasiliensis; assay: Antifungal activity against Paracoccidioides brasiliensis Pb18 in presence of 0.125 ug/ml amphotericin B; format: functional

| SMILES | Activity (Vero) | MIC [2] | Activity (HeLa) | MIC [3] | FIC [4] | selectivity ratio [5] | MFC [6] | selectivity ratio [7] | Activity (Candida) | also measured |
| --- | --- | --- | --- | --- | --- | --- | --- | --- | --- | --- |
| O=C(N/N=C/c1ccccc1)c1n[nH]c(=O)c2nc(-c3ccccc3)ncc12 | > 80% | 0.125 µg/mL (≈ 0.337 µM) | > 80% | 0.031 µg/mL | 0.134 | 13 | 0.5 µg/mL (≈ 1.35 µM) | 13 | – | MIC [1]: 1 µg/mL; MIC (Candida albicans): 4 µg/mL (≈ 10.8 µM); MIC (Candida tropicalis): 8 µg/mL (≈ 21.6 µM) |
| O=C(N/N=C/c1ccc(O)cc1)c1n[nH]c(=O)c2nc(-c3ccccc3)ncc12 | > 80% | 32 µg/mL (≈ 82.8 µM) | > 80% | 16 µg/mL | 0.37 | 5 | 32 µg/mL (≈ 82.8 µM) | 5 | inactive | MIC [8]: 0.5 µg/mL |
| COc1ccc(/C=N/NC(=O)c2n[nH]c(=O)c3nc(-c4ccccc4)ncc23)cc1 | – | > 256 µg/mL | – | – | – | – | – | – | – | – |
| O=C(N/N=C/c1cc(Cl)ccc1O)c1n[nH]c(=O)c2nc(-c3ccccc3)ncc12 | > 80% | 64 µg/mL (≈ 152 µM) | > 80% | 4 µg/mL | 0.245 | 4 | 64 µg/mL (≈ 152 µM) | 4 | – | MIC (Nakaseomyces glabratus): 4 µg/mL (≈ 9.51 µM); MIC [8]: 0.5 µg/mL |
| O=C(N/N=C/c1ccccn1)c1n[nH]c(=O)c2nc(-c3ccccc3)ncc12 | – | > 256 µg/mL | – | – | – | – | – | – | – | – |
| O=C(N/N=C/c1ccc(F)cc1)c1n[nH]c(=O)c2nc(-c3ccccc3)ncc12 | > 80% | 32 µg/mL (≈ 82.4 µM) | > 80% | 8 µg/mL | 0.625 | 5 | 32 µg/mL (≈ 82.4 µM) | 5 | inactive | MIC [9]: 0.5 µg/mL |
| COc1cc(/C=N/NC(=O)c2n[nH]c(=O)c3nc(-c4ccccc4)ncc23)ccc1O | – | > 256 µg/mL | – | – | – | – | – | – | – | – |
| COc1ccc(/C=N/NC(=O)c2n[nH]c(=O)c3nc(-c4ccccc4)ncc23)cc1OC | > 80% | 64 µg/mL (≈ 149 µM) | > 80% | 16 µg/mL | 0.625 | 4 | 64 µg/mL (≈ 149 µM) | 4 | inactive | MIC [9]: 0.5 µg/mL |
| NNC(=O)c1n[nH]c(=O)c2nc(-c3ccccc3)ncc12 | – | > 256 µg/mL | – | – | – | – | – | – | – | – |
| CN(C)c1ccc(/C=N/NC(=O)c2n[nH]c(=O)c3nc(-c4ccccc4)ncc23)cc1 | – | > 256 µg/mL | – | – | – | – | – | – | – | – |
| O=C(N/N=C/c1cccs1)c1n[nH]c(=O)c2nc(-c3ccccc3)ncc12 | – | > 256 µg/mL | – | – | – | – | – | – | – | – |
| O=C(N/N=C/c1ccccc1O)c1n[nH]c(=O)c2nc(-c3ccccc3)ncc12 | > 80% | 128 µg/mL (≈ 331 µM) | > 80% | 8 µg/mL | 0.625 | 3 | 128 µg/mL (≈ 331 µM) | 3 | inactive | MIC [10]: 0.25 µg/mL |
| O=C(N/N=C/c1cccc([N+](=O)[O-])c1)c1n[nH]c(=O)c2nc(-c3ccccc3)ncc12 | – | > 256 µg/mL | – | – | – | – | – | – | – | – |
| O=C(N/N=C/c1ccc([N+](=O)[O-])cc1)c1n[nH]c(=O)c2nc(-c3ccccc3)ncc12 | – | > 256 µg/mL | – | – | – | – | – | – | – | – |
| C[C@@H]1[C@H](O)[C@@H](C)/C=C/C=C/C=C/C=C/C=C/C=C/C=C/[C@H](O[C@@H]2O[C@H](C)[C@@H](O)[C@H](N)[C@@H]2O)C[C@@H]2O[C@](O)(C[C@@H](O)C[C@@H](O)[C@H](O)CC[C@@H](O)C[C@@H](O)CC(=O)O[C@H]1C)C[C@H](O)[C@H]2C(=O)O [AMPHOTERICIN B] | – | 1 µg/mL (≈ 1.08 µM) | – | – | – | – | 1 µg/mL (≈ 1.08 µM) | – | – | – |
| COc1cc(/C=N/NC(=O)c2n[nH]c(=O)c3nc(-c4ccccc4)ncc23)cc(OC)c1O | > 80% | 64 µg/mL (≈ 143 µM) | > 80% | 16 µg/mL | 0.75 | 4 | 64 µg/mL (≈ 143 µM) | 4 | inactive | MIC [10]: 0.5 µg/mL |
| O=C(N/N=C/c1ccc(-c2cccs2)s1)c1n[nH]c(=O)c2nc(-c3ccccc3)ncc12 | – | > 256 µg/mL | – | – | – | – | – | – | – | – |
| CCC(C)n1ncn(-c2ccc(N3CCN(c4ccc(OCC5COC(Cn6cncn6)(c6ccc(Cl)cc6Cl)O5)cc4)CC3)cc2)c1=O (stereo not drawn) [ITRACONAZOLE] | – | 1 µg/mL (≈ 1.42 µM) | – | – | – | – | – | – | – | – |
| O=C(N/N=C/c1cc([N+](=O)[O-])ccc1O)c1n[nH]c(=O)c2nc(-c3ccccc3)ncc12 | > 80% | 128 µg/mL (≈ 297 µM) | > 80% | 8 µg/mL | 0.625 | 3 | 128 µg/mL (≈ 297 µM) | 3 | inactive | MIC [10]: 0.25 µg/mL |
